Values joined by “and” are separate entries in the source; they are usually repeats but may differ in a detail not shown here. Identical values can stand only once. Inconclusive results and toxic doses are left out. Rule for the calls: active = survival T/C of 150% or more; inactive = T/C below 125% in these data.
Test system: BDF1 mice, P388 leukemia ip, median survival T/C
Assay: NCI In Vivo Anticancer Drug Screen. Data for tumor model P388 Leukemia (intraperitoneal) in B6D2F1 (BDF1) mice
Settings: endpoint: median survival time, higher = longer survival
Outline: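 Read-out is survival of treated animals expressed relative to the vehicle group, as a T/C ratio.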

[1] = dose: 100.0 mg/kg/injection, schedule: Q04DX003 (ip), vehicle: other
[2] = dose: 50.0 mg/kg/injection, schedule: Q01DX009 (ip), vehicle: saline with Tween-80
[3] = dose: 100.0 mg/kg/injection, schedule: Q01DX009 (ip), vehicle: saline with Tween-80
[4] = dose: 200.0 mg/kg/injection, schedule: Q01DX009 (ip), vehicle: saline with Tween-80
[5] = dose: 100.0 mg/kg/injection, schedule: Q01DX009 (ip), vehicle: saline
[6] = dose: 200.0 mg/kg/injection, schedule: Q01DX009 (ip), vehicle: saline
[7] = dose: 400.0 mg/kg/injection, schedule: Q01DX009 (ip), vehicle: saline
[8] = dose: 100.0 mg/kg/injection, schedule: Q04DX003 (ip), vehicle: saline

Measured: T/C

FC(F)(F)c1nc2nc(Cl)c(Cl)nc2[nH]1
active: [1] 150 % of control
inactive: dose: 10.0 mg/kg/injection, schedule: Q01DX009 (ip), vehicle: other 100 % of control | dose: 20.0 mg/kg/injection, schedule: Q01DX009 (ip), vehicle: other 109 % of control | dose: 26.6 mg/kg/injection, schedule: Q01DX009 (ip), vehicle: other 120 % of control | dose: 44.0 mg/kg/injection, schedule: Q04DX003 (ip), vehicle: other 118 % of control

O=c1/c(=C\C=C\c2ccccc2)sc2n1CCN=2
inactive: [2] 92 % of control | [3] 92 % of control | [4] 92 % of control

O=c1ccc2cc(OC3OC(CO)C(O)C(O)C3O)c(O)cc2o1 (stereo not drawn)
inactive: [5] 95 % of control | dose: 100.0 mg/kg/injection, schedule: Q04DX003 (ip), vehicle: alcohol 105 % of control | [6] 104 % of control | dose: 200.0 mg/kg/injection, schedule: Q04DX003 (ip), vehicle: alcohol 100 % of control | [7] 109 % of control | dose: 400.0 mg/kg/injection, schedule: Q04DX003 (ip), vehicle: alcohol 110 % of control

O=C1CCCN1
inactive: dose: 50.0 mg/kg/injection, schedule: Q01DX001 (ip), vehicle: saline 100 % of control | dose: 50.0 mg/kg/injection, schedule: Q04DX003 (ip), vehicle: saline 95 % of control | dose: 100.0 mg/kg/injection, schedule: Q01DX001 (ip), vehicle: saline 118 % of control | [5] 105 % of control | [8] 87 % of control | dose: 200.0 mg/kg/injection, schedule: Q01DX001 (ip), vehicle: saline 100 % of control | [6] 110 % of control | [7] 110 % of control

CCCCCCCCSc1ncnc2nc[nH]c12
inactive: [3] 108 % of control | dose: 100.0 mg/kg/injection, schedule: Q04DX003 (ip), vehicle: saline with Tween-80 100 % of control | [4] 87 % of control | dose: 200.0 mg/kg/injection, schedule: Q04DX003 (ip), vehicle: saline with Tween-80 100 % of control | dose: 400.0 mg/kg/injection, schedule: Q01DX009 (ip), vehicle: saline with Tween-80 108 % of control | dose: 400.0 mg/kg/injection, schedule: Q04DX003 (ip), vehicle: saline with Tween-80 100 % of control

c1cc2cnc3cccc4cnc(c1)c2c43
inactive: dose: 100.0 mg/kg/injection, schedule: Q01DX001 (ip), vehicle: saline sonified 100 % of control | dose: 400.0 mg/kg/injection, schedule: Q01DX001 (ip), vehicle: saline sonified 100 % of control

CC(Cl)CNC(=O)Nc1cccc2c1CCCC2 (stereo not drawn)
inactive: dose: 100.0 mg/kg/injection, schedule: Q01DX001 (ip), vehicle: saline with Tween-80 100 % of control | dose: 200.0 mg/kg/injection, schedule: Q01DX001 (ip), vehicle: saline with Tween-80 109 % of control | dose: 400.0 mg/kg/injection, schedule: Q01DX001 (ip), vehicle: saline with Tween-80 90 % of control

COc1cc(/C(C)=N\O)ccc1O
inactive: dose: 100.0 mg/kg/injection, schedule: Q01DX001 (ip), vehicle: other 100 % of control | dose: 200.0 mg/kg/injection, schedule: Q01DX001 (ip), vehicle: other 100 % of control | dose: 400.0 mg/kg/injection, schedule: Q01DX001 (ip), vehicle: other 100 % of control

CN(C)CCC(O)Cc1ccccc1 (stereo not drawn)
inactive: dose: 50.0 mg/kg/injection, schedule: Q04DX003 (ip), vehicle: acetone 100 % of control | dose: 100.0 mg/kg/injection, schedule: Q04DX003 (ip), vehicle: acetone 100 % of control | dose: 200.0 mg/kg/injection, schedule: Q04DX003 (ip), vehicle: acetone 105 % of control

CN(C)c1ccc(Nc2c3ccccc3nc3ccccc23)cc1
active: dose: 36.0 mg/kg/injection, schedule: Q01DX010 (ip), vehicle: saline 159 % of control and 172 % of control | dose: 54.0 mg/kg/injection, schedule: Q01DX010 (ip), vehicle: saline 159 % of control and 172 % of control | dose: 80.0 mg/kg/injection, schedule: Q01DX010 (ip), vehicle: saline 213 % of control and 218 % of control | dose: 120.0 mg/kg/injection, schedule: Q01DX010 (ip), vehicle: saline 268 % of control

Nc1ccc2c(-c3cccc([N+](=O)[O-])c3)cc(=O)[nH]c2n1
inactive: [8] 88 % of control | dose: 200.0 mg/kg/injection, schedule: Q04DX003 (ip), vehicle: saline 87 % of control | dose: 400.0 mg/kg/injection, schedule: Q04DX003 (ip), vehicle: saline 87 % of control

O=c1ccc2c([nH]1)CCCCC2
inactive: dose: 50.0 mg/kg/injection, schedule: Q04DX003 (ip), vehicle: saline sonified 104 % of control | dose: 100.0 mg/kg/injection, schedule: Q04DX003 (ip), vehicle: saline sonified 100 % of control | dose: 200.0 mg/kg/injection, schedule: Q04DX003 (ip), vehicle: saline sonified 95 % of control

COc1cccc(C2N=NC3=C(CCCC3)N2O)c1O (stereo not drawn)
inactive: dose: 25.0 mg/kg/injection, schedule: Q01DX009 (ip), vehicle: Klucel (hydroxypropylcellulose) (HPC) 95 % of control | dose: 50.0 mg/kg/injection, schedule: Q01DX009 (ip), vehicle: Klucel (hydroxypropylcellulose) (HPC) 87 % of control | dose: 200.0 mg/kg/injection, schedule: Q01DX009 (ip), vehicle: Klucel (hydroxypropylcellulose) (HPC) 96 % of control

CNCCSS(=O)(=O)CCNC
inactive: dose: 100.0 mg/kg/injection, schedule: Q01DX005 (ip), vehicle: saline 94 % of control

Cc1cc(O)c2c3c(ccc2c1)C(=O)c1c(O)cccc1C3=O
inactive: dose: 0.5 mg/kg/injection, schedule: Q01DX009 (ip), vehicle: Klucel (hydroxypropylcellulose) (HPC) 109 % of control | dose: 1.0 mg/kg/injection, schedule: Q01DX009 (ip), vehicle: Klucel (hydroxypropylcellulose) (HPC) 110 % of control | dose: 2.0 mg/kg/injection, schedule: Q01DX009 (ip), vehicle: Klucel (hydroxypropylcellulose) (HPC) 101 % of control | dose: 4.0 mg/kg/injection, schedule: Q01DX009 (ip), vehicle: Klucel (hydroxypropylcellulose) (HPC) 101 % of control

OC(CN(CCCl)CCCl)C(O)C(O)C(O)CN(CCCl)CCCl (stereo not drawn)
inactive: dose: 6.0 mg/kg/injection, schedule: Q04DX003 (ip), vehicle: saline 86 % of control | dose: 26.0 micrograms/kg/injection, schedule: Q04DX003 (ip), vehicle: saline 100 % of control | dose: 40.0 micrograms/kg/injection, schedule: Q04DX003 (ip), vehicle: saline 112 % of control | dose: 60.0 micrograms/kg/injection, schedule: Q04DX003 (ip), vehicle: saline 120 % of control
active: dose: 0.13 mg/kg/injection, schedule: Q04DX003 (ip), vehicle: saline 150 % of control | dose: 0.2 mg/kg/injection, schedule: Q04DX003 (ip), vehicle: saline 166 % of control | dose: 0.25 mg/kg/injection, schedule: Q04DX003 (ip), vehicle: saline 155 % of control | dose: 0.3 mg/kg/injection, schedule: Q04DX003 (ip), vehicle: saline 191 % of control | dose: 0.44 mg/kg/injection, schedule: Q04DX003 (ip), vehicle: saline 212 % of control | dose: 0.5 mg/kg/injection, schedule: Q04DX003 (ip), vehicle: saline 183 % of control | dose: 0.67 mg/kg/injection, schedule: Q01DX009 (ip), vehicle: saline 241 % of control | dose: 1.0 mg/kg/injection, schedule: Q01DX009 (ip), vehicle: saline 219 % of control | dose: 1.0 mg/kg/injection, schedule: Q04DX003 (ip), vehicle: saline 177 % of control and 213 % of control | dose: 1.5 mg/kg/injection, schedule: Q01DX009 (ip), vehicle: saline 213 % of control | dose: 1.5 mg/kg/injection, schedule: Q04DX003 (ip), vehicle: saline 272 % of control and 177 % of control | dose: 2.0 mg/kg/injection, schedule: Q04DX003 (ip), vehicle: saline 281 % of control | dose: 2.25 mg/kg/injection, schedule: Q04DX003 (ip), vehicle: saline 245 % of control

O=C(NC(=O)c1c(F)cccc1F)Nc1ccc2[nH]ccc2c1
inactive: dose: 25.0 mg/kg/injection, schedule: Q01DX009 (ip), vehicle: saline with Tween-80 100 % of control | [2] 100 % of control | [3] 93 % of control

COC(=O)[C@]1(C)CCC[C@]2(C)[C@H]3CC4OO[C@@]3(CC[C@H]21)[C@H]1O[C@@]41C(C)C
inactive: dose: 100.0 mg/kg/injection, schedule: Q01DX009 (ip), vehicle: other 120 % of control | [1] 113 % of control | dose: 132.0 mg/kg/injection, schedule: Q01DX009 (ip), vehicle: other 100 % of control | dose: 200.0 mg/kg/injection, schedule: Q01DX009 (ip), vehicle: other 87 % of control | dose: 200.0 mg/kg/injection, schedule: Q04DX003 (ip), vehicle: other 118 % of control | dose: 400.0 mg/kg/injection, schedule: Q04DX003 (ip), vehicle: other 104 % of control

From PubChem BioAssay AID328 (DTP/NCI, 2004)
